biological target: T1, GCase (Homo sapiens, UniProt P04062); assay: activation of GCase in a live cell PFB assay in HELA cells; type: cell-based; settings: EC50 given as range classes
T1 construct: endogenous in cells; host or cells: HeLa cells
T1 sequence (P04062 40-536): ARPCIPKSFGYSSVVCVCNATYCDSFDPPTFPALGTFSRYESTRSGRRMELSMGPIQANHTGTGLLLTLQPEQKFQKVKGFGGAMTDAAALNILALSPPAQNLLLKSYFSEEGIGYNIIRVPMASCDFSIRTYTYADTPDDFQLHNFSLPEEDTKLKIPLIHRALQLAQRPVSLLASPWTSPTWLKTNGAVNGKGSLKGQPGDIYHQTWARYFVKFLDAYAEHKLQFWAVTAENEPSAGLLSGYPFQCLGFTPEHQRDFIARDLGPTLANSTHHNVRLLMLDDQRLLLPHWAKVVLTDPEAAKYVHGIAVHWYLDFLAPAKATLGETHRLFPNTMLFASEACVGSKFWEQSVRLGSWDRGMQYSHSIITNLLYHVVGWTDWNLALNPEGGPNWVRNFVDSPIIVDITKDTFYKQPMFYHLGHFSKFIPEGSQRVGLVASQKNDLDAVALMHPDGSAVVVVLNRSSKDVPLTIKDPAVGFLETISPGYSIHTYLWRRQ
Method: Exemplary compounds were evaluated for activation of GCase in a live cell PFB assay in HELA cells (essentially as described in Ysselstein et al., “LRRK2 kinase activity regulates lysosomal glucocerebrosidase in neurons derived from Parkinson's disease patients” Nature Communications (2019) 10:5570). […] EC50 ranges: A: <10 μM; B: >10-50 μM; C: >50-100 μM; D: >100 μM.

SMILES | EC50
Cn1c(=O)n(C2COC2)c2nc(N3CCC4(CN(c5ccnc(C(F)(F)F)c5)C4)C3)cnc21 [Cmpd 978] | < 10 µM
Cn1c(=O)n(C2COC2)c2ncc(N3CCC4(CN(c5ccnc(C(F)(F)F)c5)C4)C3)nc21 [Cmpd 979] | < 10 µM
CCn1c(=O)n(CC(F)F)c2nc(N3CCC4(CN(c5ccnc(C(F)(F)F)c5)C4)C3)cnc21 [Cmpd 980] | < 10 µM
CCn1c(=O)n(C2COC2)c2nc(N3CCC4(CN(c5ccnc(C(F)(F)F)c5)C4)C3)cnc21 [Cmpd 981] | 10 to 50 µM
CCn1c(=O)n(C2COC2)c2ncc(N3CCC4(CN(c5ccnc(C(F)(F)F)c5)C4)C3)nc21 [Cmpd 982] | 10 to 50 µM
CCN1C(=O)N(c2ccnc(C(F)(F)F)c2)C(=O)C12CCN(c1cnc3cnn(C4COC4)c3n1)CC2 [Cmpd 983] | 10 to 50 µM
CCN1C(=O)N(c2ccnc(C(F)(F)F)c2)C(=O)C12CCN(c1cnc3c(C)nn(C4COC4)c3n1)CC2 [Cmpd 984] | < 10 µM
Cc1nn(CC(F)F)c2nc(N3CCC4(CN(c5ccnc(C(F)(F)F)c5)C4)C3)cnc12 [Cmpd 985] | > 100 µM
FC(F)(F)c1cc(N2CC3(CCN(c4nccc(-c5nncs5)n4)C3)C2)ccn1 [Cmpd 986] | < 10 µM
FC(F)(F)c1cc(N2CC3(CCN(c4cnc5cnn(C6COC6)c5n4)C3)C2)ccn1 [Cmpd 987] | > 100 µM
Cn1c(N2CCC3(CN(c4cnc(C(F)(F)F)nc4)C3)C2)nc2c(cnn2CC(F)F)c1=O [Cmpd 988] | < 10 µM
Cn1c(N2CCC3(CN(c4ccnc(C(F)(F)F)c4)C3)C2)nc2c(cnn2CC(F)F)c1=O [Cmpd 989] | > 100 µM
CCn1ncc2c(=O)n(C)c(N3CCC4(CN(c5cnc(C(F)(F)F)nc5)C4)C3)nc21 [Cmpd 990] | < 10 µM
Cn1c(N2CCC3(CN(c4ccnc(C(F)(F)F)n4)C3)C2)nc2c(cnn2CC(F)F)c1=O [Cmpd 991] | < 10 µM
Cn1c(N2CCC3(CN(c4ccnc(C(F)(F)F)c4)C3)C2=O)nc2c(cnn2CC(F)F)c1=O [Cmpd 992] | 10 to 50 µM
Cn1c(N2CCC3(CN(c4ccnc(C(F)(F)F)c4)C3)C2)nc2c(cnn2C2COC2)c1=O [Cmpd 993] | 50 to 100 µM
Cc1nn(CC(F)F)c2nc(N3CCC4(CN(c5ccnc(C(F)(F)F)c5)C4)C3)n(C)c(=O)c12 [Cmpd 994] | < 10 µM
Cc1nn(C2COC2)c2nc(N3CCC4(CN(c5ccnc(C(F)(F)F)c5)C4)C3)n(C)c(=O)c12 [Cmpd 995] | < 10 µM
Cn1c(N2CCC3(CN(c4ccc(C(F)(F)F)cn4)C3)C2)nc2c(cnn2CC(F)F)c1=O [Cmpd 996] | 10 to 50 µM
Cn1c(N2CCC3(CN(c4ccc(C(F)(F)F)nc4)C3)C2)nc2c(cnn2CC(F)F)c1=O [Cmpd 997] | < 10 µM
Cn1c(N2CC3(CC2=O)CN(c2ccnc(C(F)(F)F)c2)C3)nc2c(cnn2CC(F)F)c1=O [Cmpd 998] | 10 to 50 µM
O=C1N(c2ncc3cnn(CC(F)F)c3n2)CCC12CN(c1ccnc(C(F)(F)F)c1)C2 [Cmpd 999] | 10 to 50 µM
Cc1nn(CC(F)F)c2nc(N3CCC4(CN(c5ccnc(C(F)(F)F)c5)C4)C3=O)ncc12 [Cmpd 1000] | < 10 µM
Cc1nn(CC(F)F)c2nc(N3CCC4(CN(c5ccnc(C(F)(F)F)c5)C4)C3=O)cnc12 [Cmpd 1001] | < 10 µM
Cc1nn(C2COC2)c2nc(N3CCC4(CN(c5ccnc(C(F)(F)F)c5)C4)C3=O)cnc12 [Cmpd 1002] | < 10 µM
O=C1N(c2cnc3cnn(C4COC4)c3n2)CCC12CN(c1ccnc(C(F)(F)F)c1)C2 [Cmpd 1003] | 10 to 50 µM
O=C1N(c2ncc3cnn(C4COC4)c3n2)CCC12CN(c1ccnc(C(F)(F)F)c1)C2 [Cmpd 1004] | 10 to 50 µM
O=C1CC2(CN(c3ccnc(C(F)(F)F)c3)C2)CN1c1ncc2cnn(CC(F)F)c2n1 [Cmpd 1005] | 10 to 50 µM
Cc1nn(CC(F)F)c2nc(N3CC4(CC3=O)CN(c3ccnc(C(F)(F)F)c3)C4)ncc12 [Cmpd 1006] | 10 to 50 µM

same assay, conditions: activation of GCase, EC50 ranges

SMILES | EC50
CCOc1nn(C2COC2)c2nc(N3CCC4(CC3)CC(=O)N(c3ccc(C(F)(F)F)nc3)C4)cnc12 [Cmpd 951] | < 10 µM
COc1nn(C2COC2)c2nc(N3CCC4(CC3)CC(=O)N(c3ccc(C(F)(F)F)nc3)C4)ncc12 [Cmpd 952] | 10 to 50 µM
CCOc1nn(C2COC2)c2nc(N3CCC4(CC3)CC(=O)N(c3ccc(C(F)(F)F)nc3)C4)ncc12 [Cmpd 953] | 10 to 50 µM
O=C1CC2(CCN(c3cnc4cnn(CC(F)F)c4n3)CC2)C(CCF)N1c1ccnc(C(F)(F)F)c1 (centres unmarked) [Cmpd 954] | 10 to 50 µM
O=C1CC2(CCN(c3cnc4cnn(CC(F)F)c4n3)CC2)C(CC(F)F)N1c1ccnc(C(F)(F)F)c1 (centres unmarked) [Cmpd 955] | < 10 µM
Cc1cnc(C(F)(F)F)nc1N1CC2(CCN(c3cnc4cnn(CC(F)F)c4n3)CC2)CC1=O [Cmpd 956] | > 100 µM
Cc1nc(C(F)(F)F)ncc1N1CC2(CCN(c3cnc4cnn(CC(F)F)c4n3)C2)C1 [Cmpd 957] | 10 to 50 µM
FC(F)Cn1ncc2ncc(N3CCC4(CN(c5cnc(C(F)F)nc5)C4)C3)nc21 [Cmpd 958] | < 10 µM
Cc1nc(OCC(F)(F)F)ncc1N1CC2(CCN(c3cnc4cnn(CC(F)F)c4n3)C2)C1 [Cmpd 959] | 10 to 50 µM
FC(F)Cn1ncc2ncc(N3CCC4(CN(c5ccnc(OCC(F)(F)F)n5)C4)C3)nc21 [Cmpd 960] | 10 to 50 µM
Cc1cnc(C(F)(F)F)nc1N1CC2(CCN(c3cnc4cnn(CC(F)F)c4n3)C2)C1 [Cmpd 961] | 10 to 50 µM
FC(F)(F)c1cc(N2CC3(CCN(c4ncc5cnn(C6COC6)c5n4)C3)C2)ccn1 [Cmpd 962] | 10 to 50 µM
O=C1CC2(CCN(c3cnc4cnn(CC(F)F)c4n3)CC2)CN1Cc1ncc(C(F)(F)F)cc1F [Cmpd 963] | < 10 µM
CC(c1ccc(C(F)(F)F)cn1)N1CC2(CCN(c3cnc4cnn(CC(F)F)c4n3)CC2)CC1=O (centres unmarked) [Cmpd 964] | < 10 µM
CC(c1ccc(C(F)(F)F)nc1)N1CC2(CCN(c3cnc4cnn(CC(F)F)c4n3)CC2)CC1=O (centres unmarked) [Cmpd 965] | 10 to 50 µM
O=C1CC2(CCN(c3cnc4cnn(CC(F)F)c4n3)CC2)CN1Cc1ccnc(C(F)(F)F)c1F [Cmpd 966] | < 10 µM
CC(c1ccc(Cl)cn1)N1CC2(CCN(c3cnc4cnn(CC(F)F)c4n3)CC2)CC1=O (centres unmarked) [Cmpd 967] | < 10 µM
CC(c1cncc(Cl)c1)N1CC2(CCN(c3cnc4cnn(CC(F)F)c4n3)CC2)CC1=O (centres unmarked) [Cmpd 968] | < 10 µM
CC(c1ccnc(C(F)(F)F)c1)N1CC2(CCN(c3cnc4cnn(CC(F)F)c4n3)CC2)CC1=O (centres unmarked) [Cmpd 969] | < 10 µM
COc1nccc(CN2CC3(CCN(c4cnc5cnn(CC(F)F)c5n4)CC3)CC2=O)n1 [Cmpd 970] | 50 to 100 µM
O=C1CC2(CCN(c3cnc4cnn(CC(F)F)c4n3)CC2)CN1Cc1ccnc(OCC(F)(F)F)n1 [Cmpd 971] | < 10 µM
Cc1cc(CN2CC3(CCN(c4cnc5cnn(CC(F)F)c5n4)CC3)CC2=O)on1 [Cmpd 972] | 10 to 50 µM
CCc1sc(C(F)(F)F)nc1N1CC2(CCN(c3cnc4cnn(CC(F)F)c4n3)CC2)CC1=O [Cmpd 973] | 10 to 50 µM
Cc1ncc(CN2CC3(CCN(c4cnc5cnn(CC(F)F)c5n4)CC3)CC2=O)o1 [Cmpd 974] | 50 to 100 µM
Cc1cnc(CN2CC3(CCN(c4cnc5cnn(CC(F)F)c5n4)CC3)CC2=O)s1 [Cmpd 975] | 10 to 50 µM
CCc1cnc(CN2CC3(CCN(c4cnc5cnn(CC(F)F)c5n4)CC3)CC2=O)s1 [Cmpd 976] | < 10 µM
Cn1c(=O)n(CC(F)F)c2nc(N3CCC4(CN(c5ccnc(C(F)(F)F)c5)C4)C3)cnc21 [Cmpd 977] | 10 to 50 µM
